According to ChEMBL document CHEMBL3046142, “Cross resistance, genetic analysis and stability of resistance to buprofezin in cotton whitefly, Bemisia tabaci (Homoptera: Aleyrodidae)” (2012):

Experiments:
Assay type in all cases: functional
[1] = system: Bemisia tabaci; test: Insecticidal activity against Bemisia tabaci Bupro-SEL (sweet potato whitefly) from 20 generation buprofezin resistance assessed as mortality measured after 18 to 20 days
[2] = system: Bemisia tabaci; test: Insecticidal activity against Bemisia tabaci UNSEL G11 (sweet potato whitefly) from 11 generation buprofezin resistance assessed as mortality measured after 18 to 20 days
[3] = system: Bemisia tabaci; test: Insecticidal activity against Bemisia tabaci (sweet potato whitefly) susceptible Lab-PK assessed as mortality measured after 18 to 20 days
[4] = system: Bemisia tabaci; test: Insecticidal activity against Bemisia tabaci Bupro-SEL (sweet potato whitefly) from 10 generation buprofezin resistance assessed as mortality measured after 18 to 20 days
[5] = system: Bemisia tabaci; test: Insecticidal activity against Bemisia tabaci (sweet potato whitefly) from one generation buprofezin resistance G1 assessed as mortality measured after 18 to 20 days
[6] = system: Bemisia tabaci; test: Insecticidal activity against Bemisia tabaci F1 (sweet potato whitefly) pooled/Bupro-SEL hybrid assessed as mortality measured after 18 to 20 days
[7] = system: Bemisia tabaci; test: Insecticidal activity against Bemisia tabaci Bupro-SEL (sweet potato whitefly) female/Lab-PK male hybrid assessed as mortality measured after 18 to 20 days
[8] = system: Bemisia tabaci; test: Insecticidal activity against Bemisia tabaci Bupro-SEL (sweet potato whitefly) male/Lab-PK female hybrid assessed as mortality measured after 18 to 20 days
[9] = system: Bemisia tabaci; test: Insecticidal activity against Bemisia tabaci F1 (sweet potato whitefly) pooled assessed as mortality measured after 18 to 20 days

CC(COc1ccc(Oc2ccccc2)cc1)Oc1ccccn1 (centres undefined) [PYRIPROXYFEN]
LC50 [1]: 1.63 ugAi/ml
LC50 [2]: 0.52 ugAi/ml
LC50 [3]: 0.6 ugAi/ml
LC50 [4]: 51.54 ugAi/ml
LC50 [5]: 1.81 ugAi/ml

CC(C)N1C(=O)N(c2ccccc2)CS/C1=N\C(C)(C)C [BUPROFEZIN]
LC50 [1]: 115.2 ugAi/ml
LC50 [6]: 62.6 ugAi/ml
LC50 [7]: 5.11 ugAi/ml
LC50 [8]: 4.41 ugAi/ml
LC50 [2]: 0.25 ugAi/ml
LC50 [3]: 0.2 ugAi/ml
LC50 [4]: 1400 ugAi/ml
LC50 [5]: 1.41 ugAi/ml
LC50 [9]: 4.86 ugAi/ml

C/C(=N\C#N)N(C)Cc1ccc(Cl)nc1 [ACETAMIPRID]
LC50 [1]: 0.4 ugAi/ml
LC50 [2]: 0.36 ugAi/ml
LC50 [3]: 0.39 ugAi/ml
LC50 [4]: 4.04 ugAi/ml
LC50 [5]: 2.21 ugAi/ml

CCOC(=O)OC1=C(c2cc(C)ccc2C)C(=O)N[C@]12CC[C@@H](OC)CC2 [SPIROTETRAMAT]
LC50 [1]: 0.11 ugAi/ml
LC50 [2]: 0.1 ugAi/ml
LC50 [3]: 0.17 ugAi/ml
LC50 [4]: 1.04 ugAi/ml
LC50 [5]: 0.7 ugAi/ml

O=[N+]([O-])/N=C1\NCCN1Cc1ccc(Cl)nc1 [IMIDACLOPRID]
LC50 [1]: 0.17 ugAi/ml
LC50 [2]: 0.2 ugAi/ml
LC50 [3]: 0.09 ugAi/ml
LC50 [4]: 2.18 ugAi/ml
LC50 [5]: 1.29 ugAi/ml
